# In ChEMBL document CHEMBL3885881, “DrugMatrix”:
# Species: Rattus norvegicus
# Test: DrugMatrix - Regimen: Daily Repeat
# Format: toxicity, organism-based, Sprague-Dawley
# Parameters: regimen Daily Repeat, gender Male, age 6-8 weeks
# Conditions: in vivo, iv, vehicle 100 % SALINE; for ABSOLUTE BASOPHIL / ABSOLUTE EOSINOPHIL / ABSOLUTE LYMPHOCYTE / ABSOLUTE MONOCYTE / ABSOLUTE SEGMENTED NEUTROPHIL / BASOPHIL / EOSINOPHIL / ERYTHROCYTE COUNT / HEMATOCRIT / HEMOGLOBIN / LEUKOCYTE COUNT / LYMPHOCYTE / MEAN CORPUSCULAR HEMOGLOBIN / MEAN CORPUSCULAR HEMOGLOBIN CONCENTRATION / MEAN CORPUSCULAR VOLUME / MONOCYTE / NEUTROPHIL / NUCLEATED RED BLOOD CELLS / PLATELET COUNT: tissue Blood; for ALANINE AMINOTRANSFERASE / ALBUMIN / ALKALINE PHOSPHATASE / ASPARTATE AMINOTRANSFERASE / BLOOD UREA NITROGEN / CARBON DIOXIDE / CHLORIDE / CHOLESTEROL / CREATINE PHOSPHOKINASE / CREATININE / GLUCOSE / LACTATE DEHYDROGENASE / LIPASE / PHOSPHORUS / POTASSIUM / SODIUM / TOTAL BILIRUBIN / TOTAL PROTEIN / URIC ACID: tissue Plasma
# [1] = 0.07 mg/kg, 72 h, dose level Low, time 3 day
# [2] = 0.07 mg/kg, 120 h, dose level Low, time 5 day
# [3] = […], 72 h, dose 0.16 mg/Kg, dose level High, time 3 day
# [4] = […], 120 h, dose 0.16 mg/Kg, dose level High, time 5 day
structure (smiles),measurement,setting,value
CNC(=O)Oc1ccc2c(c1)[C@]1(C)CCN(C)[C@@H]1N2C [PHYSOSTIGMINE],ABSOLUTE BASOPHIL,[1],0 CELLS/uL
same,ABSOLUTE EOSINOPHIL,[1],271.33 CELLS/uL
same,ABSOLUTE LYMPHOCYTE,[1],11715.67 CELLS/uL
same,ABSOLUTE MONOCYTE,[1],88.33 CELLS/uL
same,ABSOLUTE SEGMENTED NEUTROPHIL,[1],1491.33 CELLS/uL
same,BASOPHIL,[1],0%
same,EOSINOPHIL,[1],2%
same,ERYTHROCYTE COUNT,[1],5.08 x10E6/uL
same,HEMATOCRIT,[1],32.57%
same,HEMOGLOBIN,[1],12.27 G/DL
same,LEUKOCYTE COUNT,[1],13.57 x10E3/uL
same,LYMPHOCYTE,[1],86.67%
same,MEAN CORPUSCULAR HEMOGLOBIN,[1],24.13 pg
same,MEAN CORPUSCULAR HEMOGLOBIN CONCENTRATION,[1],37.67 G/DL
same,MEAN CORPUSCULAR VOLUME,[1],64.1 fL
same,MONOCYTE,[1],0.67%
same,NEUTROPHIL,[1],10.67%
same,NUCLEATED RED BLOOD CELLS,[1],0 /100WBC
same,PLATELET COUNT,[1],1091 x10E3/uL
same,ALANINE AMINOTRANSFERASE,[1],64.33 u/L
same,ALBUMIN,[1],4.03 G/DL
same,ALKALINE PHOSPHATASE,[1],342.67 u/L
same,ASPARTATE AMINOTRANSFERASE,[1],99.67 u/L
same,BLOOD UREA NITROGEN,[1],14.67 mg/dL
same,CARBON DIOXIDE,[1],24.67 mmol/L
same,CHLORIDE,[1],105.33 MEQ/L
same,CHOLESTEROL,[1],67.33 mg/dL
same,CREATINE PHOSPHOKINASE,[1],386 u/L
same,CREATININE,[1],0.14 mg/dL
same,GLUCOSE,[1],161.67 mg/dL
same,LACTATE DEHYDROGENASE,[1],95.33 u/L
same,LIPASE,[1],7.67 u/L
same,PHOSPHORUS,[1],12.37 mg/dL
same,POTASSIUM,[1],5.92 MEQ/L
same,SODIUM,[1],144.47 MEQ/L
same,TOTAL BILIRUBIN,[1],0.17 mg/dL
same,TOTAL PROTEIN,[1],5.73 G/DL
same,URIC ACID,[1],1.23 mg/dL
same,ABSOLUTE BASOPHIL,[2],0 CELLS/uL
same,ABSOLUTE EOSINOPHIL,[2],138.33 CELLS/uL
same,ABSOLUTE LYMPHOCYTE,[2],16178.33 CELLS/uL
same,ABSOLUTE MONOCYTE,[2],247.67 CELLS/uL
same,ABSOLUTE SEGMENTED NEUTROPHIL,[2],2735.67 CELLS/uL
same,BASOPHIL,[2],0%
same,EOSINOPHIL,[2],0.67%
same,ERYTHROCYTE COUNT,[2],5.42 x10E6/uL
same,HEMATOCRIT,[2],34.33%
same,HEMOGLOBIN,[2],13.27 G/DL
same,LEUKOCYTE COUNT,[2],19.3 x10E3/uL
same,LYMPHOCYTE,[2],84%
same,MEAN CORPUSCULAR HEMOGLOBIN,[2],24.43 pg
same,MEAN CORPUSCULAR HEMOGLOBIN CONCENTRATION,[2],38.7 G/DL
same,MEAN CORPUSCULAR VOLUME,[2],63.27 fL
same,MONOCYTE,[2],1.33%
same,NEUTROPHIL,[2],14%
same,NUCLEATED RED BLOOD CELLS,[2],0 /100WBC
same,PLATELET COUNT,[2],1244.33 x10E3/uL
same,ALANINE AMINOTRANSFERASE,[2],50 u/L
same,ALBUMIN,[2],4.33 G/DL
same,ALKALINE PHOSPHATASE,[2],370 u/L
same,ASPARTATE AMINOTRANSFERASE,[2],86.67 u/L
same,BLOOD UREA NITROGEN,[2],22 mg/dL
same,CARBON DIOXIDE,[2],24 mmol/L
same,CHLORIDE,[2],102 MEQ/L
same,CHOLESTEROL,[2],62.33 mg/dL
same,CREATINE PHOSPHOKINASE,[2],479.33 u/L
same,CREATININE,[2],0.2 mg/dL
same,GLUCOSE,[2],168 mg/dL
same,LACTATE DEHYDROGENASE,[2],93.67 u/L
same,LIPASE,[2],8 u/L
same,PHOSPHORUS,[2],13.33 mg/dL
same,POTASSIUM,[2],6.49 MEQ/L
same,SODIUM,[2],141.5 MEQ/L
same,TOTAL BILIRUBIN,[2],0.2 mg/dL
same,TOTAL PROTEIN,[2],6.17 G/DL
same,URIC ACID,[2],1.63 mg/dL
same,ABSOLUTE BASOPHIL,[3],0 CELLS/uL
same,ABSOLUTE EOSINOPHIL,[3],107 CELLS/uL
same,ABSOLUTE LYMPHOCYTE,[3],10987.67 CELLS/uL
same,ABSOLUTE MONOCYTE,[3],71.33 CELLS/uL
same,ABSOLUTE SEGMENTED NEUTROPHIL,[3],1134 CELLS/uL
same,BASOPHIL,[3],0%
same,EOSINOPHIL,[3],1%
same,ERYTHROCYTE COUNT,[3],5.42 x10E6/uL
same,HEMATOCRIT,[3],33.77%
same,HEMOGLOBIN,[3],13 G/DL
same,LEUKOCYTE COUNT,[3],12.3 x10E3/uL
same,LYMPHOCYTE,[3],88.33%
same,MEAN CORPUSCULAR HEMOGLOBIN,[3],24.03 pg
same,MEAN CORPUSCULAR HEMOGLOBIN CONCENTRATION,[3],38.57 G/DL
same,MEAN CORPUSCULAR VOLUME,[3],62.37 fL
same,MONOCYTE,[3],0.67%
same,NEUTROPHIL,[3],10%
same,NUCLEATED RED BLOOD CELLS,[3],0 /100WBC
same,PLATELET COUNT,[3],1231 x10E3/uL
same,ALANINE AMINOTRANSFERASE,[3],56.33 u/L
same,ALBUMIN,[3],4.17 G/DL
same,ALKALINE PHOSPHATASE,[3],305 u/L
same,ASPARTATE AMINOTRANSFERASE,[3],87.33 u/L
same,BLOOD UREA NITROGEN,[3],15.33 mg/dL
same,CARBON DIOXIDE,[3],27.67 mmol/L
same,CHLORIDE,[3],107 MEQ/L
same,CHOLESTEROL,[3],78.67 mg/dL
same,CREATINE PHOSPHOKINASE,[3],187.33 u/L
same,CREATININE,[3],0.13 mg/dL
same,GLUCOSE,[3],159.33 mg/dL
same,LACTATE DEHYDROGENASE,[3],115.33 u/L
same,LIPASE,[3],8.67 u/L
same,PHOSPHORUS,[3],13.93 mg/dL
same,POTASSIUM,[3],6.15 MEQ/L
same,SODIUM,[3],147.9 MEQ/L
same,TOTAL BILIRUBIN,[3],0.17 mg/dL
same,TOTAL PROTEIN,[3],5.83 G/DL
same,URIC ACID,[3],1.43 mg/dL
same,ABSOLUTE BASOPHIL,[4],0 CELLS/uL
same,ABSOLUTE EOSINOPHIL,[4],171.67 CELLS/uL
same,ABSOLUTE LYMPHOCYTE,[4],8706.33 CELLS/uL
same,ABSOLUTE MONOCYTE,[4],43.33 CELLS/uL
same,ABSOLUTE SEGMENTED NEUTROPHIL,[4],3645.33 CELLS/uL
same,BASOPHIL,[4],0%
same,EOSINOPHIL,[4],1.33%
same,ERYTHROCYTE COUNT,[4],5.7 x10E6/uL
same,HEMATOCRIT,[4],35.8%
same,HEMOGLOBIN,[4],13.57 G/DL
same,LEUKOCYTE COUNT,[4],12.57 x10E3/uL
same,LYMPHOCYTE,[4],68.67%
same,MEAN CORPUSCULAR HEMOGLOBIN,[4],23.8 pg
same,MEAN CORPUSCULAR HEMOGLOBIN CONCENTRATION,[4],37.9 G/DL
same,MEAN CORPUSCULAR VOLUME,[4],62.8 fL
same,MONOCYTE,[4],0.33%
same,NEUTROPHIL,[4],29.67%
same,NUCLEATED RED BLOOD CELLS,[4],0 /100WBC
same,PLATELET COUNT,[4],1062 x10E3/uL
same,ALANINE AMINOTRANSFERASE,[4],52.67 u/L
same,ALBUMIN,[4],4.03 G/DL
same,ALKALINE PHOSPHATASE,[4],416.33 u/L
same,ASPARTATE AMINOTRANSFERASE,[4],80 u/L
same,BLOOD UREA NITROGEN,[4],15 mg/dL
same,CARBON DIOXIDE,[4],26 mmol/L
same,CHLORIDE,[4],104 MEQ/L
same,CHOLESTEROL,[4],60 mg/dL
same,CREATINE PHOSPHOKINASE,[4],226.67 u/L
same,CREATININE,[4],0.22 mg/dL
same,GLUCOSE,[4],181 mg/dL
same,LACTATE DEHYDROGENASE,[4],200 u/L
same,LIPASE,[4],7.67 u/L
same,PHOSPHORUS,[4],13.3 mg/dL
same,POTASSIUM,[4],6.09 MEQ/L
same,SODIUM,[4],146.53 MEQ/L
same,TOTAL BILIRUBIN,[4],0.13 mg/dL
same,TOTAL PROTEIN,[4],6.43 G/DL
same,URIC ACID,[4],1.77 mg/dL
